Test results: paper PMC10767194 (The Journal of Biological Chemistry, 2023)
Like-named read-outs stand apart in the source and are kept apart here.

Key:
[1] = system: T1, Cdk7/CycH; assay: radioactive in vitro kinase assay, Cdk7/CycH; type: biochemical, human; settings: 0, 0.1, 1, 10, 100 μM compound, 0.2 μM kinase, 0.2 mM ATP
T1 construct: Full-length, human, WT Cdk7 (residues 1–346, UniProt P50613); made in house; host or cells: Sf9 insect cells
Method: (§1) Radioactive kinase activity assays were performed in a total volume of 15 μl per sample in kinase assay buffer (50 mM Hepes/pH 7.6, 34 mM KCl, 7 mM MgCl2, 5 mM β-glycerol phosphate, and 2.5 mM dithioerythritol). Preincubation of 0.2 μM or 0.02 μM recombinant protein kinase with indicated concentrations of respective inhibitor and 0.2 to 2 mM ATP containing 0.45 mCi [^32P]-γ-ATP/ml (PerkinElmer) was carried out for 5 min. Kinase reactions were started by addition of substrate protein (10 μM GST-Rb1 for Cdk4/CycD3, 10 μM GST-CTD[52] for Cdk7/CycH/MAT1, 50 μM His-c-Myc for all others) and incubated for 20 min at 30 °C in a shaking incubator at 300 rpm. For pS7-CTD[3] peptide, the substrate concentration was increased to 100 μM and assays were performed for 60 min. Reactions were terminated by the addition of EDTA to a final concentration of 50 mM. […] Radioactive counts were determined in a Beckman Liquid Scintillation Counter (Beckman Coulter) for 1 min. […] IC50 values were extracted from triplicate measurements by sigmoidal curve fitting using DataGraph (v. 5.0; https://www.visualdatatools.com/DataGraph/) or were determined by applying the Morrison quadratic equation for tight binding inhibitors using GraphPad Prism 10 (https://www.graphpad.com/) ([40]).

[2] = target: T2, Cdk13/CycK (Homo sapiens, UniProt Q14004); assay: radioactive in vitro kinase assay, Cdk13/CycK; type: biochemical
T2 construct: The kinase domain of human Cdk13 (residues 694–1039, UniProt Q14004); made in house; host or cells: Sf9 insect cells, co-expressed with CAK1
Method: To a concentration of 0.2 μM kinase and 0.2 mM ATP, a compound concentration ranging from 0.1 nM to 1 mM was applied. Kinase reactions were started by the addition of 100 μM CTD peptide containing three hepta-repeats continuously prephosphorylated at position S7 (pS7-CTD[3]) and terminated after 60 min incubation time. In vitro IC50-values were determined by applying a sigmoidal fit to dose-response measurements (Fig. 1A). […] The Michaelis–Menten constants (KM) for ATP were determined as 17.5 μM for Cdk12/CycK and 12.6 μM for Cdk13/CycK, respectively. […] These values are in accordance with the values derived from sigmoidal curve fitting.
Radioactive kinase activity assays were performed in a total volume of 15 μl per sample in kinase assay buffer (50 mM Hepes/pH 7.6, 34 mM KCl, 7 mM MgCl2, 5 mM β-glycerol phosphate, and 2.5 mM dithioerythritol). […] Radioactive counts were determined in a Beckman Liquid Scintillation Counter (Beckman Coulter) for 1 min. […] IC50 values were extracted from triplicate measurements by sigmoidal curve fitting using DataGraph (v. 5.0; https://www.visualdatatools.com/DataGraph/) or were determined by applying the Morrison quadratic equation for tight binding inhibitors using GraphPad Prism 10 (https://www.graphpad.com/) ([40]).

[3] = system: Cdk8/CycC; assay: radioactive in vitro kinase assay, Cdk8/CycC; type: biochemical, human; settings: 0, 0.1, 1, 10, 100 μM compound, 0.2 μM kinase, 0.2 mM ATP
Method: as §1

[4] = system: T3, Cdk4/CycD3; assay: radioactive in vitro kinase assay, Cdk4/CycD3; type: biochemical, human; settings: 0, 0.1, 1, 10, 100 μM compound, 0.2 μM kinase, 0.2 mM ATP
T3 construct: GST (of the complex); made in house; host or cells: Sf9 insect cells
Method: as §1

[5] = target: T2, Cdk13/CycK; assay: SPR single-cycle kinetics, active Cdk13*/CycK; settings: T-loop phosphorylated active kinase (CAK1 coexpressed), 1:1 binding model
Method: The protein kinases were immobilized on a CM5 chip using the amine-coupling method. […] The fully active and T-loop phosphorylated kinase preparations of Cdk12∗/CycK and Cdk13∗/CycK were obtained through coexpression with Cdk-activating kinase 1 (CAK1) from Saccharomyces cerevisiae. […] For comparison, we measured the affinity of NVP-2 for active kinases Cdk12∗/CycK and its proposed target Cdk9/CycT1 by SPR.
SPR experiments were conducted on a Biacore 8K (Cytiva) device. The system was equilibrated in running buffer (20 mM Tris pH 8, 150 mM NaCl, 1 mM tris(2-carboxyethyl)phosphine, 0.1 mM MgCl2, 0.05% Tween20, and 2% DMSO) at 25 °C. Flow cell 1 and 2 surfaces of a CM5 sensor chip (Cytiva) were conditioned with 50 mM NaOH at a flow rate of 30 μl/min for 15 s and subsequently activated with a 1:1 mix of 0.1 M N-hydroxysuccinimide (NHS) and 0.1 M 3-(N,N-dimethylamino) propyl-N-ethyl-carbodiimide (EDC) at a flow rate of 10 μl/min for 7 min. The flow system was washed with 1 M enthanolamine (pH 8). WT and mutant kinases Cdk12/CycK, Cdk13/CycK and Cdk9/CycT1 were diluted in Mes (pH 6.5) to a final concentration of 2 μM. Immobilization of kinases was performed in running buffer without DMSO using the amine coupling method on flow cell 2 surface for 160 s at a flow rate of 10 μl/min. Free binding sites were blocked with 1 M ethanolamine pH 8.0 (10 μl/min) for 7 min. […]

[6] = system: T4, HIPK3; assay: radioactive in vitro kinase assay, HIPK3; type: biochemical, human; settings: 0, 0.1, 1, 10, 100 μM compound, 0.2 μM kinase, 0.2 mM ATP
T4 construct: human HIPK3 (residues 159–562, UniProt Q9H422); made in house; host or cells: Sf9 insect cells
Method: as §1

[7] = system: T5, HIPK2; assay: radioactive in vitro kinase assay, HIPK2; type: biochemical, human; settings: 0, 0.1, 1, 10, 100 μM compound, 0.2 μM kinase, 0.2 mM ATP
T5 construct: human HIPK2 (residues 160–563, UniProt Q9H2X6); made in house; host or cells: Sf9 insect cells
Method: as §1

[8] = system: T6, HIPK1; assay: radioactive in vitro kinase assay, HIPK1; type: biochemical, human; settings: 0, 0.1, 1, 10, 100 μM compound, 0.2 μM kinase, 0.2 mM ATP
T6 construct: human HIPK1 (residues 154–554, UniProt Q86Z02); made in house; host or cells: Sf9 insect cells
Method: as §1

T2 sequence (Q14004 694-1039): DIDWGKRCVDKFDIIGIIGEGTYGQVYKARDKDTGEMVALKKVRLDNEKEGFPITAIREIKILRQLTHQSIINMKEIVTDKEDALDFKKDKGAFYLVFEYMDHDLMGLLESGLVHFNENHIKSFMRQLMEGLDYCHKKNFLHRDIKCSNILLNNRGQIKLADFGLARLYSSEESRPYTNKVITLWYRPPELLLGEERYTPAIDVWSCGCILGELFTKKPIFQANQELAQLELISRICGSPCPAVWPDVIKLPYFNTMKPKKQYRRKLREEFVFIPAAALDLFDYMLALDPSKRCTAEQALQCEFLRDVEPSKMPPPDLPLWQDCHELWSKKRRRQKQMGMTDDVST
T2 sequence (O75909 1-267 partner limits assumed): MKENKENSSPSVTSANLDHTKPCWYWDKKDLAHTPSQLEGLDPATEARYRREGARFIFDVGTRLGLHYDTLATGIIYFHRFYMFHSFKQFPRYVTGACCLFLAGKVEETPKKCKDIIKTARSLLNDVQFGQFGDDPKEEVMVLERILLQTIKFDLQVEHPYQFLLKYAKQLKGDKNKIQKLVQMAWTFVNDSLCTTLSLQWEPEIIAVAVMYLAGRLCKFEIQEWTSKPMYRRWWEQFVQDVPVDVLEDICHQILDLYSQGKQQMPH

Cn1cc(-n2cnc3c(NCc4nc5cc(Cl)c(Cl)cc5[nH]4)nc(N4CCOCC4)nc32)cn1 [SR-4835]
inhibition of Cdk7 activity [1]: no inhibitory activity | IC50 ([2]; 0.2 μM and 0.02 μM kinase, c-Myc substrate, Morrison quadratic equation fit, read-out: IC50 Cdk13/CycK, Morrison quadratic equation): 0.366 to 0.4 µM | IC50 ([2]; 0.2 μM kinase, 0.2 mM ATP, 100 μM pS7-CTD[3], 60 min, sigmoidal fit, read-out: IC50 Cdk13/CycK on pS7-CTD[3]): 0.366 µM | inhibition of Cdk8 activity [3]: no inhibitory activity | inhibition of Cdk4/CycD3 activity [4]: minimal decrease in kinase activity | Kd [5]: 0.168 µM | inhibition of HIPK3 activity [6]: not inhibited | inhibition of HIPK2 activity [7]: not inhibited | inhibition of HIPK1 activity [8]: not inhibited
